In US12122787B2, “Fused pyridone compound, and preparation method therefor and use thereof” (SHANGHAI JEMINCARE PHARMACEUTICALS CO., LTD, priority 2019, dated 2024):
pIC50: −log10 of the molar value. Like-named read-outs stand apart in the source and are kept apart here.

Experiments:
Format in all cases: cell-based
[1] = tested on: MIA PaCa2 cells expressing KRAS-G12C; experiment: Growth inhibition of tumor cell line expressing KRAS-G12C (Cell Titer Glo), MIA PaCa2
Method: (§1) The ability of the compounds of the present disclosure to inhibit the growth of cells expressing KRAS-G12C was evaluated by measuring the cell viability and calculating the GI50 values.
(§2) The tumor cell line NCI-H358 (ATCC catalogue number CRL-5807) expressing KRAS-G12C was cultured in RPMI medium supplemented with 10% fetal bovine serum and penicillin/streptomycin, and the tumor cell line MIA PaCa2 (ATCC CRL-1420) expressing KRAS-G12C was cultured in DMEM medium supplemented with 10% fetal bovine serum, 2.5% horse serum, and penicillin/streptomycin.
(§3) Cells NCI-H358 and MIA-Paca2 were inoculated into black transparent bottom 384-well plate (PerkinElmer catalogue number 6007460) with cell density of 1000 and 800 respectively, and the cells were allowed to adhere to the wall overnight (8-12 hours). After the cells adhered to the wall, the experimental group was added with the compound of the present disclosure diluted 5 times the concentration of the working solution (final concentration containing 0.1% dimethyl sulfoxide, i.e. DMSO); the control group was added with the same dilution as the experimental group (final concentration containing 0.1% DMSO). After 72 hours, Cell Titer Glo reagent (Promega catalogue number G7572) was used to detect ATP content according to the instruction method to determine the amount of cell proliferation. The brief operation steps were as follows: the cell plate was taken out and kept at normal temperature for equilibrium for 30 minutes; Cell Titer Glo reagent with the same volume as the culture was added; the culture plate was placed on a shaker for shaking and cracking for 2 minutes; the culture plate was left to stand at room temperature for 10 minutes; then the light signal value was read by microplate reader EnVision (PerkinElmer).
(§4) Data from all experimental groups were used to calculate the respective percent inhibition using the DMSO group, and the GI50 was calculated using the data processing software GraphPad to analyze the inhibition rates produced by the 9 compound dose concentrations diluted at ⅓-fold ratio.

[2] = tested on: NCI-H358 cells expressing KRAS-G12C; experiment: Growth inhibition of tumor cell line expressing KRAS-G12C (Cell Titer Glo), NCI-H358
Method: as §1, §2, §3, §4

[3] = tested on: phosphorylated ERK (Thr202/Tyr204) in NCI-H358 cells expressing mutant RAS(G12C); experiment: Inhibition of RAS-mediated signal transduction: phosphorylated ERK ELISA in NCI-H358 cells; conditions: for pIC50: NCI-H358 cells, 2 hours of treatment, pERK normalized by Janus Green B, read-out: p-ERK IC50 (NCI H358)
Method: The cells were treated with or without the compound of the present disclosure (dimethyl sulfoxide, DMSO), and the final concentration of DMSO was guaranteed to be 0.5%. After 2 hours of treatment, the medium was removed and 4% paraformaldehyde (Beyotime catalog number E672002-0100) was added and left to stand for 20 minutes. Cells were washed with PBS after fixation and incubated with precooled methanol for 10 min to permeabilize the cell membrane.
The level of phosphorylated ERK was detected using an enzyme linked immunosorbent assay (ELISA) method. […] The plates were washed 5 times with PBS containing 0.05% Tween 20. […] The reaction was stopped by adding 1 mol/L H2SO4, and the OD value was read at 450 nm by EnVision (PerkinElmer).
The total number of cells per well was detected by Janus Green B staining method. After detecting the level of phosphorylated ERK, the 96-well plate was washed with PBS until colorless, and 0.1% Janus Green B (Abcam catalogue number ab111622) was added to incubate for 10 minutes. After the 96-well plate was washed with double distilled water, 0.1 mol/L HCl was added, then the mixture was shaked and incubated for 10 minutes. The OD value was read at 595 nm by EnVision (PerkinElmer).
The signal of pERK (Thr202/Tyr204) was normalized by the signal value of Janus Green B, and the inhibition percentage after drug treatment relative to DMSO reference was calculated. The percentage values were fitted by a four-parameter dose-response curve and generated IC50 values.

[4] = Homo sapiens, MIA PaCa-2, 72 h, MIA-Paca2, 72 hours

GI50 ([1]; MIA-Paca2, 72 hours) [nM] | GI50 ([2]; NCI-H358, 72 hours) [nM] | GI50 [1, 4] [nM] | GI50 ([2]; Homo sapiens, NCI-H358, 72 h) [nM] | SMILES | pIC50 [3] | pIC50 ([3]; Homo sapiens, NCI-H358, 2 h) | further results
172 | 149 | – | – | C=CC(=O)N1CC2COc3c(c4cc(Cl)c(-c5c(O)cccc5F)c(F)c4n(-c4c(C)ccnc4C(C)C)c3=O)N2CC1C (single isomer, unassigned) [Compound 18B-2] | 6.99 | – | –
– | – | 228 | 9 | C=CC(=O)N1C[C@@H]2C(=O)N(C)c3c(c4cc(Cl)c(-c5c(F)cccc5OC)c(F)c4n(-c4c(C)ccnc4C(C)C)c3=O)N2C[C@H]1C [Compound 42A] | – | 8.05 | –
– | – | 94 | 62 | C=CC(=O)N1C[C@@H]2C(=O)N(C)c3c(c4cc(Cl)c(-c5c(F)cccc5OC)c(F)c4n(-c4c(C)ncnc4C(C)C)c3=O)N2C[C@H]1C [Compound 50] | – | 7.39 | –
– | – | 230 | 41 | C=CC(=O)N1C[C@@H]2COc3c(c4cc(F)c(-c5c(F)cccc5OC)nc4n(-c4c(C)ccnc4C(C)C)c3=O)N2C[C@H]1C (single isomer, unassigned) [Compound 6A] | 7.19 | – | –
– | – | 231 | 208 | C=CC(=O)N1C[C@@H]2C(=O)N(CCN(C)C)c3c(c4cc(Cl)c(-c5c(F)cccc5OC)nc4n(-c4c(C)ccnc4C(C)C)c3=O)N2C[C@H]1C [Compound 30A] | – | 6.77 | –
23 | 11 | – | – | C=CC(=O)N1CC2C(=O)N(CCN(C)C)c3c(c4cc(F)c(-c5c(O)cccc5F)c(F)c4n(-c4c(C)ccnc4C(C)C)c3=O)N2CC1C (stereo not drawn) [Compound 24C] | 7.92 | – | –
24 | 12 | – | – | C=CC(=O)N1C[C@@H]2COc3c(c4cc(Cl)c(-c5c(O)cccc5F)c(F)c4n(-c4c(C)ccnc4C(C)C)c3=O)N2C[C@H]1C (atropisomer, axis not shown) [Compound 18A-2] | 7.89 | – | –
– | – | 9 | 4 | C=CC(=O)N1C[C@@H]2C(=O)N(C)c3c(c4cc(Cl)c(-c5c(O)cccc5F)c(F)c4n(-c4c(C)ncnc4C(C)C)c3=O)N2C[C@H]1C [Compound 49A] | – | 8.40 | –
85 | 28 | – | – | C=CC(=O)N1C[C@@H]2C(=O)Nc3c(c4cc(F)c(-c5c(O)cccc5F)c(F)c4n(-c4c(C)ccnc4C(C)C)c3=O)N2C[C@H]1C [Compound 22A-1] | 7.22 | – | –
252 | 89 | – | – | C=CC(=O)N1C[C@@H]2COc3c(c4cc(F)c(-c5c(O)cccc5F)nc4n(-c4c(C)ccnc4C(C)C)c3=O)N2C[C@H]1C (single isomer, unassigned) [Compound 5A] | 7.21 | – | –
3130 | 210 | – | – | C=CC(=O)N1C[C@@H]2COc3c(c4cc(F)c(-c5c(O)cccc5F)nc4n(-c4c(C)ccnc4C(C)C)c3=O)N2C[C@H]1C (single isomer, unassigned) [Compound 5B] | 6.89 | – | –
– | – | 281 | 104 | C=CC(=O)N1C[C@@H]2C(=O)N(C)c3c(c4cc(Cl)c(-c5c(O)cccc5F)c(F)c4n(-c4c(C)ccnc4C(C)C)c3=O)N2C[C@H]1C [Compound 23A-1] | – | 6.95 | –
– | – | 10 | 4 | C=CC(=O)N1C[C@@H]2C(=O)N(C)c3c(c4cc(F)c(-c5c(O)cccc5F)c(F)c4n(-c4c(C(C)C)ncnc4C(C)C)c3=O)N2C[C@H]1C [Compound 20A] | – | 8.40 | –
– | – | – | – | C=CC(=O)N1CCN(c2ncnc3c(F)c(-c4c(O)cccc4F)c(Cl)cc23)CC1 [ARS-1620] | – | – | GI50 ([1]; Homo sapiens, MIA PaCa-2, MIA-Paca2, 72 hours): 1210 nM; GI50 ([2]; Homo sapiens, NCI-H358, 72 hours): 510 nM; IC50 ([3]; Homo sapiens, NCI-H358, 2 h, read-out: p-ERK IC50 (NCI H358, μM)): 0.325 µM
34 | 10 | – | – | C=CC(=O)N1C[C@@H]2C(=O)N(C)c3c(c4cc(F)c(-c5c(O)cccc5F)c(F)c4n(-c4c(C)ccnc4C(C)C)c3=O)N2C[C@H]1C [Compound 21A-2] | 7.82 | – | –
10 | 2 | – | – | C=CC(=O)N1C[C@@H]2COc3c(c4cc(Cl)c(-c5c(O)cccc5F)c(F)c4n(-c4c(C)ccnc4C(C)C)c3=O)N2C[C@H]1C [Compound 18A-1] | 8.40 | – | –
2600 | 163 | – | – | C=CC(=O)N1C[C@@H]2CN(CCCO)c3c(c4cc(F)c(-c5c(O)cccc5F)c(F)c4n(-c4c(C)ccnc4C(C)C)c3=O)N2C[C@H]1C (atropisomer, axis not shown) [Compound 35A-1] | 6.50 | – | –
13 | 6 | – | – | C=CC(=O)N1C[C@@H]2COc3c(c4cc(Cl)c(-c5c(O)cccc5F)c(F)c4n(-c4c(C)ccnc4C(C)C)c3=O)N2C[C@H]1C [Compound 18A] | 8.30 | – | –
– | – | 29 | 10 | C=CC(=O)N1C[C@@H]2C(=O)N(C)c3c(c4cc(Cl)c(-c5c(O)cccc5F)nc4n(-c4c(C)ccnc4C(C)C)c3=O)N2C[C@H]1C [Compound 25A] | – | 7.85 | –
– | – | 156 | 91 | C=CC(=O)N1C[C@@H]2C(=O)N(C)c3c(c4cc(F)c(-c5c(O)cccc5F)c(F)c4n(-c4c(C)ccnc4C(C)C)c3=O)N2C[C@H]1C [Compound 21A-1] | 6.98 | – | –
– | – | 535 | 77 | C=CC(=O)N1C[C@@H]2CN(CC(=O)OC)c3c(c4cc(F)c(-c5c(O)cccc5F)c(F)c4n(-c4c(C)ccnc4C(C)C)c3=O)N2C[C@H]1C [Compound 38B] | 7.19 | – | –
– | – | 265 | 59 | C=CC(=O)N1C[C@@H]2COc3c(c4cc(F)c(-c5c(C)ccc6[nH]ncc56)nc4n(-c4ccccc4C(C)C)c3=O)N2C[C@H]1C (single isomer, unassigned) [Compound 13A] | 7.40 | – | –
– | – | 6 | 7 | C=CC(=O)N1C[C@@H]2C(=O)N(CCN(C)C)c3c(c4cc(Cl)c(-c5c(O)cccc5F)c(F)c4n(-c4c(CC)ccnc4C(C)C)c3=O)N2C[C@H]1C (atropisomer, axis not shown) [Compound 54B-1] | 7.92 | – | –
28 | 22 | – | – | C=CC(=O)N1C[C@@H]2C(=O)N(CCN(C)C)c3c(c4cc(Cl)c(-c5c(O)cccc5F)c(F)c4n(-c4c(C)ccnc4C(C)C)c3=O)N2C[C@H]1C (atropisomer, axis not shown) [Compound 26B] | 7.72 | – | –
– | – | 2240 | 530 | C=CC(=O)N1C[C@@H]2C(=O)N(CCCO)c3c(c4cc(F)c(-c5c(O)cccc5F)c(F)c4n(-c4c(C)ccnc4C(C)C)c3=O)N2C[C@H]1C [Compound 41A] | – | 6.03 | –
79 | 82 | – | – | C=CC(=O)N1C[C@@H]2C(=O)N(CCN(C)C)c3c(c4cc(Cl)c(-c5c(O)cccc5F)c(F)c4n(-c4c(C)ccnc4C(C)C)c3=O)N2C[C@H]1C (atropisomer, axis not shown) [Compound 26D] | 7.17 | – | –
– | – | 14 | 8 | C=CC(=O)N1C[C@@H]2COc3c(c4cc(F)c(-c5c(O)cccc5F)c(F)c4n(-c4c(C(C)C)ncnc4C(C)C)c3=O)N2C[C@H]1C [Compound 19A] | – | 8.10 | –
– | – | 1020 | 143 | C=CC(=O)N1C[C@@H]2COc3c(c4cc(F)c(-c5c(O)cccc5F)nc4n(-c4ccccc4C(C)C)c3=O)N2C[C@H]1C [Compound 2A] | – | 7.18 | –
– | – | 724 | 152 | C=CC(=O)N1C[C@@H]2C(=O)N(CCN(C)C)c3c(c4cc(Cl)c(-c5c(O)cccc5F)c(F)c4n(-c4c(C)ccnc4C(C)C)c3=O)N2C[C@H]1C (atropisomer, axis not shown) [Compound 26A] | – | 6.69 | –
